Our source for the activity and IC50 values is article PMC12340973, “Discovery of First-in-Class Inhibitors Targeting a Pathogen-Associated Aminoglycoside-Resistance 16S rRNA Methyltransferase” (ACS Infectious Diseases, 2025).

Where only a bound is given, the exact number is not on record here.

Common to all, as to format: biochemical
The target of test [1] is T1, NpmA (16S rRNA (m1A1408) methyltransferase) (Escherichia coli, UniProt A8C927).
T1 construct: recombinant NpmA
The test can be described thus: in vitro […] subunit [3H]-SAM methylation assay at fixed […]. The following applies: read-out: % activity at 1 mM.

The target in test [2] is T1, NpmA (16S rRNA (m1A1408) methyltransferase). Nature of the test: in vitro […] subunit [3H]-SAM methylation filter-binding assay, dose-response.
Test [3] has the same target. The test can be described thus: in vitro […] subunit [3H]-SAM methylation filter-binding assay, dose-response; resynthesized and retested.

T1 sequence (A8C927 whole entry): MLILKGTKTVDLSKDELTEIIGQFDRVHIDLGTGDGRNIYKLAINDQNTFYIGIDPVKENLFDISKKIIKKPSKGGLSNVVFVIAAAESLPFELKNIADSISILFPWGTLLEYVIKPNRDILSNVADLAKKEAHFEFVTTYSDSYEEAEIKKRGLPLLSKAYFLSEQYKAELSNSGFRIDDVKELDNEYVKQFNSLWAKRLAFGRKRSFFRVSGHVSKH

As for `Cc1ccc(-c2cc(C(=O)N3CCC(c4cc(O)ncn4)CC3)[nH]n2)cc1` [compound 10], in test [1], the activity at 1000 µM was below 25%.
The IC50 is the midpoint of a concentration-inhibition curve. Consider `Cc1ccc(NC(=O)C(=Cc2cccc([N+](=O)[O-])c2)NC(=O)c2ccccc2I)cc1` [compound 45], for which the IC50 in test [2] was determined as 99 µM.
On the same count and under the same terms, to `Cc1ccc(NC(=O)C(=Cc2cccc([N+](=O)[O-])c2)NC(=O)c2ccc(Cl)cc2Cl)cc1` [compound 47] belongs 68 µM.
As for `COc1cc(C2C(C(=O)OCCc3ccccc3)=C(C)NC3=C2C(=O)CC(c2ccccc2)C3)cc(Br)c1O` (stereo not drawn) [compound 20], in test [1], the activity at 1000 µM is below 25%.
The molecule `CC(=O)c1ccc(NC(=O)/C(=C/c2cccc([N+](=O)[O-])c2)NC(=O)c2ccccc2Cl)cc1` [compound 23, (Z)-N-(3-((4-Acetylphenyl)-amino)-1-(3-nitrophenyl)-3-oxoprop-1-en-2-yl)-2-chlorobenz-amide] displayed an IC50 in test [3] of 76 µM.
Regarding `CC(=O)c1ccc(NC(=O)/C(=C/c2cccc([N+](=O)[O-])c2)NC(=O)c2ccc(C)cc2)cc1` [compound 3], in test [1], the activity at 1000 µM was below 25%.
